The values that follow come from ChEMBL document CHEMBL1221333, “Design, synthesis, and biological evaluation of conformationally constrained glycerol 3-phosphate acyltransferase inhibitors” (Bioorg Med Chem, 2010).

Usually IC50 stands for the point on the concentration scale where inhibition reaches its midpoint. As usually defined, the inhibition is the percentage by which the read-out fell short of the control.

Experiment [1] can be described thus: Inhibition of GPAT.
Experiment [2] can be described thus: Inhibition of GPAT at 40 ug/ml.

Turning to `CCCCCCCCCS(=O)(=O)Nc1ccccc1C(=O)O`, in experiment [1], the IC50 turned out to be 24.7 µM. Moreover, the inhibition in experiment [2] turned out to be 97%. In turn, `CCCCCCCCS(=O)(=O)N[C@@H]1CC[C@H](C(=O)O)[C@H]1O` (racemic) registered a half-maximal inhibitory concentration (IC50) in experiment [1] of 255 µM. Further, the inhibition in experiment [2] was 25%. In experiment [1], `CCCCCCCCS(=O)(=O)N[C@H]1CCC[C@H](C(=O)O)[C@H]1O` (racemic) came in with an IC50 of 164 µM. In experiment [2], this compound gave an inhibition of 36%. `CCCCCCCCS(=O)(=O)N[C@H]1CC[C@H](C(=O)O)[C@@H]1O` (racemic) displayed an IC50 in experiment [1] of 324 µM. Also, the inhibition in experiment [2] is 3%. The like results for `CCCCCCCCS(=O)(=O)N[C@H]1CC[C@H](CC(=O)O)[C@H]1O` (racemic) were, in that order, 295 µM and 8%.

`CCCCCCCCS(=O)(=O)N[C@@H]1CCC[C@H](C(=O)O)[C@H]1O` (racemic) had an inhibition in experiment [2] of 17%. The same measure, in the same setting: the result for `CCCCCCCCS(=O)(=O)N[C@@H]1CCC[C@H](CC(=O)O)[C@H]1O` (racemic) reads 17%; that for `CCCCCCCCS(=O)(=O)N[C@@H]1CC[C@H](CC(=O)O)[C@H]1O` (racemic), 16%; that for `CCCCCCCCS(=O)(=O)N[C@@H]1[C@@H](O)CC[C@H]1C(=O)O` (racemic), 12%.

For the compound `CCCCCCCCS(=O)(=O)N[C@H]1CCC[C@H](C(=O)O)[C@@H]1O` (racemic), the inhibition in experiment [2] turned out to be 15%.

In the case of `CCCCCCCCS(=O)(=O)N[C@H]1CCC[C@H](CC(=O)O)[C@@H]1O` (racemic), in experiment [2], the inhibition was found to be 23%.

In experiment [2], `CCCCCCCCS(=O)(=O)N[C@H]1CCC[C@H](CC(=O)O)[C@H]1O` (racemic) showed an inhibition of 2%. In the case of `CCCCCCCCS(=O)(=O)N[C@H]1CC[C@H](C(=O)O)[C@H]1O` (racemic), in experiment [2], the inhibition came to 19%. The compound `CCCCCCCCS(=O)(=O)N[C@H]1CC[C@H](CC(=O)O)[C@@H]1O` (racemic) gave an inhibition in experiment [2] of 8%. The compound `CCCCCCCCS(=O)(=O)N[C@H]1[C@H](O)CC[C@H]1C(=O)O` (racemic) had an inhibition in experiment [2] of 15%.
